Experimental data taken from patent US20230256110A1, “COMBINATION OF ANTIBODY-DRUG CONJUGATE AND ATM INHIBITOR” (AstraZeneca UK Limited, priority 2020, published 2023).
“Also recorded” adds a separate entry of the source. Structures can show the parent of a compound that is named as a salt.

How the values were obtained:
NCI-N87 cell line [1] = assay: Growth inhibition by total cell (nuclear) count, 96-well imaging; type: cell-based; details: Homo sapiens; monotherapy; NCI-N87, gastric, HER2 High; 4 to 8 days
Procedure: (§1) Cells grown in their respective conditions were plated in 96-well plates at optimal density to allow linear proliferation for the duration of the assay (4 to 8 days; duration of treatment is dependent on the growth rate of each cell line). Immediately after plating, the cells were dosed with the indicated compounds for a total volume of 200 μL/well and placed in the incubator. Combinations were conducted as a 6×8 concentration response matrix for each combination. At the endpoint, the cells were fixed in 2% PFA for 20 minutes at room temperature. In order to obtain the number of cells at the start of treatment, one additional plate was used for each experiment and fixed after cells attached. The cells were then permeabilised in 0.5% Triton-X100 in PBS for 10 minutes. After a PBS wash, the cells were blocked in 5% FBS in PBS 1 h at RT and incubated with primary antibodies in 5% FBS+0.05% triton overnight at 4° C. After 3 washes in PBS cells were incubated with secondary antibodies in 5% FBS+0.05% triton with Hoechst33258 for 1 h at room temperature. After 3 washes in PBS, the cells were scanned with a Cellinsight instrument with a 10×objective and 9 fields/well. Images were analysed using Columbus for cell count based on nuclear Hoechst staining and nuclear intensity of other biomarkers investigated. The total cell count/well was used to calculate the relative growth in each well compared to solvent control. […] The mean/well of the sum of the nuclear intensity of the IF biomarkers was also expressed relative to solvent control.

SK-OV-3 cell line = assay: as above; type: cell-based; details: Homo sapiens; monotherapy; SK-OV-3, ovarian, HER2 Moderate; 4 to 8 days
Procedure: as §1

DU145 cell line = assay: as above; type: cell-based; details: Homo sapiens, DU-145; monotherapy; DU145, prostate, HER2 Low; 4 to 8 days
Procedure: as §1

MDA-MB-468 cell line [2] = assay: as above; type: cell-based; details: Homo sapiens; monotherapy; MDA-MB-468, breast, HER2 Low; 4 to 8 days
Procedure: as §1

[3] = tested on: DU145-SLFN11 KO (CRISPR-Cas9 gene knockout of SLFN11); assay: as above; type: cell-based; details: monotherapy, prostate, HER2 Low, 4 to 8 days
Procedure: as §1

JIMT-1 cell line = assay: as above; type: cell-based; details: Homo sapiens; monotherapy; JIMT-1, breast, HER2 Expressed; 4 to 8 days
Procedure: as §1

KPL4 cell line [4] = assay: as above; type: cell-based; details: monotherapy; KPL4, breast, HER2 High; 4 to 8 days
Procedure: as §1

KAP1 pSer824, γH2AX = assay: Immunofluorescence biomarkers of ATM activation and DNA damage in KPL4 cells; type: cell-based; details: high-HER2 KPL4
Procedure: Cells grown in their respective conditions were plated in 96-well plates at optimal density to allow linear proliferation for the duration of the assay (4 to 8 days; duration of treatment is dependent on the growth rate of each cell line). Immediately after plating, the cells were dosed with the indicated compounds for a total volume of 200 μL/well and placed in the incubator. Combinations were conducted as a 6×8 concentration response matrix for each combination. At the endpoint, the cells were fixed in 2% PFA for 20 minutes at room temperature. In order to obtain the number of cells at the start of treatment, one additional plate was used for each experiment and fixed after cells attached. The cells were then permeabilised in 0.5% Triton-X100 in PBS for 10 minutes. After a PBS wash, the cells were blocked in 5% FBS in PBS 1 h at RT and incubated with primary antibodies in 5% FBS+0.05% triton overnight at 4° C. After 3 washes in PBS cells were incubated with secondary antibodies in 5% FBS+0.05% triton with Hoechst33258 for 1 h at room temperature. After 3 washes in PBS, the cells were scanned with a Cellinsight instrument with a 10×objective and 9 fields/well. Images were analysed using Columbus for cell count based on nuclear Hoechst staining and nuclear intensity of other biomarkers investigated. […]

ATM signaling = assay: Inhibition of ATM signaling, antibody blots of whole-cell extracts; type: cell-based
Procedure: Gastric cancer NCI-N87 and breast carcinoma KPL4 cell lines were cultured in RPMI 1640 supplemented with 10% FCS in a humidified incubator at 37° C. with 5% CO2. Cells were plated in 6-well plates at optimal density to allow linear proliferation for the duration of the assay. […] 7 h, 24 h or 48 h after dosing, whole-cell extracts were obtained by lysis in 50 mM Tris-HCl pH 7.5, 2% SDS containing protease and phosphatase inhibitors. Lysates were boiled for 5 minutes at 95° C. Protein concentration was measured using a Nanodrop at […] and 50 μg of lysate were loaded in 4-12% Bis Tris gels. Proteins were transferred using iblot2. Primary antibodies (see Table 7) were incubated overnight at 4° C. in 3% milk TBS-tween 0.05% and HRP-conjugated secondary antibodies for 1 h at room temperature. Blots were imaged using a G-box.

[5] = tested on: NCI-N87 tumours implanted subcutaneously; assay: NCI-N87 xenograft antitumor test in vivo; parameters: species or system Female Nude mice; details: AZD1390 10 mg/kg PO QD × 28; day 40 post treatment
T47D cell line = assay: High-throughput combination screen, 7-day cell titer-glo cell viability assay; type: cell-based; details: within the selected concentration range
Source text: (§2) In addition, trastuzumab and exatecan (DNA topoisomerase I inhibitor) were also screened in parallel with AZD1390.
(§3) • Loewe Dose Additivity predicts the expected response if the two compounds act on the same molecular target by means of the same mechanism. It calculates additivity based on the assumption of zero interaction between the compounds and it is independent from the nature of the dose-response relationship. • HSA (Highest Single Agent) [Berenbaum 1989] quantifies the higher of the two single compound effects at their corresponding concentrations. The combined effect is compared with the effect of each single agent at the concentration used in the combination. Excess over the highest single agent effect indicates cooperativity. […] The predicted values are determined by the chosen model. Differences between the predicted and observed values may indicate synergy or antagonism, and are shown in the Excess Matrix. Excess Matrix values are summarized by the combination scores Excess Volume and Synergy Score.

NCI-N87 cell line [6] = assay: as above; type: cell-based; details: within the selected concentration range
Source text: as §2, §3

MDA-MB-468 cell line [7] = assay: as above; type: cell-based; details: within the selected concentration range
Source text: as §2, §3

KPL4 cell line [8] = assay: as above; type: cell-based; details: within the selected concentration range
Source text: as §2, §3

[9] = NCI-N87 and KPL4, AZD1390 at 100 nM combined with DS-8201 or exatecan mesylate

CC[C@@]1(O)C(=O)OCc2c1cc1n(c2=O)Cc2c-1nc1cc(F)c(C)c3c1c2[C@@H](N)CC3 [Exatecan mesylate, (1S,9S)-1-amino-9-ethyl-5-fluoro-1,2,3,9,12,15-hexahydro-9-hydroxy-4-methyl-10H,13H-benzo[de]pyrano[3′,4′:6,7]indolizino[1,2-b]quinolin-10,13-dione, reference compound]
GI50 (NCI-N87 cell line [1]): 0.503 nM | GI50 (SK-OV-3 cell line): 0.914 nM | GI50 (DU145 cell line): 0.564 nM | GI50 (MDA-MB-468 cell line [2]): 0.162 nM | GI50 [3]: 0.45 nM | GI50 (JIMT-1 cell line): 0.745 nM | GI50 (KPL4 cell line [4]): 1.18 nM | biomarkers of ATM (KAP1 pSer824) activation and DNA strand breaks (yH2AX) (KAP1 pSer824, γH2AX): induced in a concentration dependent manner | activation of the ATM pathway (pATM-S1981, pChk2-T68, pKap1-S824) (ATM signaling; Her2-high NCI-N87 and KPL4, DS-8201 at 30 μg/mL or exatecan mesylate alone): induced activation of the ATM pathway

CC(C)n1c(=O)n(C)c2cnc3cc(F)c(-c4ccc(OCCCN5CCCCC5)nc4)cc3c21 [AZD1390, 7-fluoro-1-isopropyl-3-methyl-8-[6-[3-(1-piperidyl)propoxy]-3-pyridyl]imidazo[4,5-c]quinolin-2-one]
Best response % TGI/regression [5]: 37% | GI50 (NCI-N87 cell line [1]): > 100 nM | GI50 (SK-OV-3 cell line): > 100 nM | GI50 (MDA-MB-468 cell line [2]): > 100 nM | GI50 (JIMT-1 cell line): > 100 nM | GI50 (KPL4 cell line [4]): > 100 nM | Single agent activity (cell viability) (T47D cell line): not active | Single agent activity (cell viability) (NCI-N87 cell line [6]): not active | Single agent activity (cell viability) (MDA-MB-468 cell line [7]): not active | Single agent activity (cell viability) (KPL4 cell line [8]): not active | DNA damage (pRPA, gH2AX) (ATM signaling; [9]): exacerbating the DNA damage | activation of pATM, pChk2, and pKAP1 (ATM signaling; [9]): inhibited the activation of pATM, pChk2, and pKAP1; also recorded: inhibits DS-8201-induced ATM signaling | cell death (cCasp3) (ATM signaling; [9]): increased cell death
